Among the data in US12221448B2, “Selective PI3Kδ inhibitor and use thereof” (TARAPEUTICS SCIENCE INC., priority 2018, dated 2025) are IC50 values, retold here.

T2 sequence (O00329 whole entry): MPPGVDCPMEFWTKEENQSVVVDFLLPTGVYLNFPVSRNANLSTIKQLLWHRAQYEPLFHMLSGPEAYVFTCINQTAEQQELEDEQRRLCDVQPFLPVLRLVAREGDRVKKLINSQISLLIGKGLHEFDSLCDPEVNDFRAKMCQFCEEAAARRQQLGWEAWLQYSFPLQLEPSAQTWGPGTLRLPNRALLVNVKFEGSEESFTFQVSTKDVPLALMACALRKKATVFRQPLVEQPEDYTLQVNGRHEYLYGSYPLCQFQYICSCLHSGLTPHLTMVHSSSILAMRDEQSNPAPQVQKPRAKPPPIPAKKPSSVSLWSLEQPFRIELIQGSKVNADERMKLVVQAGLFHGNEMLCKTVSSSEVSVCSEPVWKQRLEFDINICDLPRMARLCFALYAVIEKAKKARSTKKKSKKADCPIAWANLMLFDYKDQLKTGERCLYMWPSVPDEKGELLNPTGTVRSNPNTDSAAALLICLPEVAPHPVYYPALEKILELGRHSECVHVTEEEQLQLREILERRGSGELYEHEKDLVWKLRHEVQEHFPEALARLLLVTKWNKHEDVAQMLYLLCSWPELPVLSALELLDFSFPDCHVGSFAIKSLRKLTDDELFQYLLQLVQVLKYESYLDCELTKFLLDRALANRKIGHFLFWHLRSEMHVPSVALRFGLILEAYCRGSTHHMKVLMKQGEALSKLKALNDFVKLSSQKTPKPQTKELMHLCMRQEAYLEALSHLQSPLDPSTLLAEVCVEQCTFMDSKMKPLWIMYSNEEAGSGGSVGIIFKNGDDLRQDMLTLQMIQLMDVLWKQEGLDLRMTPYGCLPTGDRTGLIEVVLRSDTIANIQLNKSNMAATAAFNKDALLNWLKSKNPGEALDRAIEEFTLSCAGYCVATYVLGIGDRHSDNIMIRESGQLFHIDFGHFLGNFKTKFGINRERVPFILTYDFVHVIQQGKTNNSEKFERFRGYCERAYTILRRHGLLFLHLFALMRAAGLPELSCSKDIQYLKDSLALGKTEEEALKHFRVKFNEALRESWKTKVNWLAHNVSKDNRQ
T2 sequence (P27986 whole entry partner): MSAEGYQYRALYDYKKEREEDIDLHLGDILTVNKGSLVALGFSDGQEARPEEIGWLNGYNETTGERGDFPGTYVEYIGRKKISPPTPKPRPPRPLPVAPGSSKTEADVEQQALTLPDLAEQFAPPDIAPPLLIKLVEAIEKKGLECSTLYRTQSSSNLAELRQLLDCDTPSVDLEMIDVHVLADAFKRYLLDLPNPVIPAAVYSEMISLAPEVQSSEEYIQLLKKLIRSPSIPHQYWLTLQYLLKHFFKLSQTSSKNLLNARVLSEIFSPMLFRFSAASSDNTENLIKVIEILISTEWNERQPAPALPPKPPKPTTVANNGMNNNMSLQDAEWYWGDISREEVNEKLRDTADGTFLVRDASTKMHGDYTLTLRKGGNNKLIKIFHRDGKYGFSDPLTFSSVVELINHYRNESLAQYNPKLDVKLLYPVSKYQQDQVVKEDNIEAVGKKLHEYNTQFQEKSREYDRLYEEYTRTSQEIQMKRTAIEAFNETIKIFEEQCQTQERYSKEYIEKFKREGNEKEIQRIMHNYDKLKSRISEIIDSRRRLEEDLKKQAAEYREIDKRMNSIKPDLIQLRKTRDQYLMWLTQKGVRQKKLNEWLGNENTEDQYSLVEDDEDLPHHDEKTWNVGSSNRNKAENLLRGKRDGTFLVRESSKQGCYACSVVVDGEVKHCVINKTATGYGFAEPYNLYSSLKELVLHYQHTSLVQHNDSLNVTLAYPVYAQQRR
T3 sequence (P42338 whole entry): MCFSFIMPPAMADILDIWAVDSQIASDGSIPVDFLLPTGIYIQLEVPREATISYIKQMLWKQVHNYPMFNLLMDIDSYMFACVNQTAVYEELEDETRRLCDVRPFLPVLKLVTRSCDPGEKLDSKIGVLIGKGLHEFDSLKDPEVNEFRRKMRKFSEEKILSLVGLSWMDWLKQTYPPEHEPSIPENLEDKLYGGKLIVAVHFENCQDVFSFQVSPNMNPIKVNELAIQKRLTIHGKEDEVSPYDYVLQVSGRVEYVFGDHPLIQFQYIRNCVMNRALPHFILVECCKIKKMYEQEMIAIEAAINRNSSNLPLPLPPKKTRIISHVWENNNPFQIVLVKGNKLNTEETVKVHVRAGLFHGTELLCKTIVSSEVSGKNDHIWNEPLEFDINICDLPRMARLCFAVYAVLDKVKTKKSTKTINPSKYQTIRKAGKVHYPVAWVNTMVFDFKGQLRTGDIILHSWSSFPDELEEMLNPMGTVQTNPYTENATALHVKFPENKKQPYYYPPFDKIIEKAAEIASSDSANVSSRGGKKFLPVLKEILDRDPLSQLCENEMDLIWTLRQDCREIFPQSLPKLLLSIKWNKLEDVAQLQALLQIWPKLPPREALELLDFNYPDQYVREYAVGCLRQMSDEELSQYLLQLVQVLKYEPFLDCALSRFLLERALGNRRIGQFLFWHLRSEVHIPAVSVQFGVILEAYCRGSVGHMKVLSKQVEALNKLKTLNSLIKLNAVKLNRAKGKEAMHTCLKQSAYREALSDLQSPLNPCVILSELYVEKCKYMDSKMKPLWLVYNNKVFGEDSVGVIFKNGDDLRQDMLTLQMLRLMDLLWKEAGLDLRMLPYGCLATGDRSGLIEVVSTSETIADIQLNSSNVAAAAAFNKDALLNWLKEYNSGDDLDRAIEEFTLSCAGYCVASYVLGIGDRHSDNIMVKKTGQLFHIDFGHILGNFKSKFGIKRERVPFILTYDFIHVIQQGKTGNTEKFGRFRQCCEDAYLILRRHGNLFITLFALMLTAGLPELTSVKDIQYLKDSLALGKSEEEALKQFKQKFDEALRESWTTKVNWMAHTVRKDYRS
T3 sequence (P27986 whole entry partner): as the sequence (P27986 whole entry partner) above

For one assay, the target named is T1, PI3Kγ (Homo sapiens, UniProt P48736).
T1 construct: purchased Invitrogen (US)
T1 sequence (P48736 whole entry): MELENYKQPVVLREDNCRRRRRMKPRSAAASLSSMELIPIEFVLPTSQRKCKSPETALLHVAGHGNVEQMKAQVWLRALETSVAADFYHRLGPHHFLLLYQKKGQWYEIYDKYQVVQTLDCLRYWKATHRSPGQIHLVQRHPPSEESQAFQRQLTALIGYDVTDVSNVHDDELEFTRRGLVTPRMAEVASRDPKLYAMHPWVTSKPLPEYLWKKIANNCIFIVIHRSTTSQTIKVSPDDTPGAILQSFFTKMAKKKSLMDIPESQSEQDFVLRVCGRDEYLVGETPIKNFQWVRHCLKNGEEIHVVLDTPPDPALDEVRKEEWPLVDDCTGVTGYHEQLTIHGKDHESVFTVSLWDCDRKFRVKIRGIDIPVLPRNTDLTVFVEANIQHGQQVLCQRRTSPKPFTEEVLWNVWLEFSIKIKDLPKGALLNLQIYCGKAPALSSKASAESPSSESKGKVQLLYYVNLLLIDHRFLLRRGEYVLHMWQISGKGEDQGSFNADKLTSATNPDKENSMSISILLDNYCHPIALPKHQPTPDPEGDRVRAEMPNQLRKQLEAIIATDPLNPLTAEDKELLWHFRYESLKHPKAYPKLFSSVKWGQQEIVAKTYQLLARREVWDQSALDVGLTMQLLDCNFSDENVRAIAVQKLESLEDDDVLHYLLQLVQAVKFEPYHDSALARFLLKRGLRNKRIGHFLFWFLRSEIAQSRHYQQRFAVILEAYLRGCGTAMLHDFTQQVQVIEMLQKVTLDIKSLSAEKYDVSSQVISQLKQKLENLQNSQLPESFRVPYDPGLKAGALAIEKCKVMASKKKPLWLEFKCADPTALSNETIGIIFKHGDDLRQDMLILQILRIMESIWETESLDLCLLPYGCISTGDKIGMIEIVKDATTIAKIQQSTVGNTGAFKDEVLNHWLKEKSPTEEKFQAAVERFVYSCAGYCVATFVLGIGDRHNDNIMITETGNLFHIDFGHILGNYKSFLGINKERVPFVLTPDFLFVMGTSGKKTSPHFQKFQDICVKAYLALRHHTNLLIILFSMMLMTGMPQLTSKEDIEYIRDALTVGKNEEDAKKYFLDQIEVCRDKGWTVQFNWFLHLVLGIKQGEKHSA
As to the kind of experiment: In vitro enzyme activity (ADP-Glo) against PI3Kγ. Type of assay: biochemical. Conditions: Table 3; ATP 50 μM, PIP2:PS 50 μM; read-out: IC50 PIK3γ. As for the experimental part: (§1) In vitro enzyme activity experiments were performed to determine the IC50 values of the compounds against PI3K family type I kinases (PI3Kα, PI3Kβ, PI3Kγ, PI3Kδ) and type II kinases (PIK3C2A, PIK3C2B). Protein kinases PI3Kα, PI3Kγ, PI3Kδ, PIK3C2A, and PIK3C2B were all purchased from Invitrogen (US); protein kinase PI3Kβ was purchased from sigma (US); the three substrates PIP2: PS, PI and PI: PS were purchased from Invitrogen (US).
(§2) Protein kinases diluted to a certain concentration, i.e., PI3Kα 5.4 μL (with a final concentration of 0.16 ng/μL), PI3Kβ 5.4 μL (with a final concentration of 6 ng/μL), PI3Kδ 5.4 μL (with a final concentration of 1 ng/μL), PI3Kγ 5.4 μL (with a final concentration of 5 ng/μL), PIK3C2A 5.4 μL (with a final concentration of 5 ng/μL), and PIK3C2B 5.4 μL (with a final concentration of 10 ng/μL) were respectively reacted with 1 μL of the serially diluted drug compounds for 1 hour at room temperature (final drug concentrations were 10 μM, 1 μM, 0.3 μM, 0.1 μM, 0.03 μM, 0.01 μM, 0.003 μM, and 0.001 μM, respectively).
(§3) To each reaction tube of the above PI3K family type I kinases, 6 μL of a mixture of ATP (Promega, US) and substrate PIP2:PS (final concentrations of ATP in the reaction systems of kinases PI3Kα, and PI3Kβ were 10 μM, and final concentrations of ATP in the reaction systems of kinases PI3Kδ, and PI3Kγ were 50 μM, and final concentrations of the substrate PIP2:PS were all 50 μM) was added, and reacted at 37° C. for 1 hour. The reaction buffer was 50 mM Hepes (pH 7.5) (Promega, USA), 3 mM MgCl2, 1 mM EGTA (Promega, US), 100 mM NaCl, 0.03% CHAPS (Promega, US).
(§4) 5 μL of kinase solution after reaction was placed in a 384-well plate (Corning, US), and 5 μL of ADP-Glo™ reagent (Promega, US) was added thereto and reacted at room temperature for 40 minutes to stop the kinase reaction and exhaust the remaining ATP; 10 μL of kinase detection reagent was added to convert ADP into ATP, and coupled luciferase/luciferin reaction was utilized to detect the newly synthesized ATP. Envision was utilized for readout and plotting, and Graphpad IC50 value was calculated.
The term IC50 denotes the point on the concentration scale where inhibition reaches its midpoint. `CC(C)Oc1ccc(-c2nn([C@@H](C)c3oc4ccc(F)cc4c(=O)c3-c3cccc(F)c3)c3ncnc(N)c23)cc1F` [TGR1202, reference compound]: the IC50 was 0.362 µM.

The next assay addresses T2, PI3Kδ (Homo sapiens, UniProt O00329).
T2 construct: purchased Invitrogen (US)
As to the kind of experiment: In vitro enzyme activity (ADP-Glo) against PI3Kδ. Conditions: Table 2; ATP 50 μM, PIP2:PS 50 μM. Type of assay: biochemical. The protocol:
as §1, §2, §3, §4
For orientation: In ADP-Glo the light output rises with the ADP produced.
`CC(c1nc2cccc(F)c2c(=O)n1C1CCCC1)n1nc(-c2cccc(F)c2)c2c(N)ncnc21` (stereo not drawn) [Compound 12, 2-(1-(4-amino-3-(3-fluorophenyl)-1H-pyrazolo [3,4-d]pyrimidin-1-yl)ethyl)-3-cyclopentyl-5-fluoroquinazolin-4(3H)-one] came in with an IC50 of 0.082 µM.

For the molecule `Cc1ccc(-c2nn(C(C)c3nc4ccc(F)cc4c(=O)n3C3CC3)c3ncnc(N)c23)cc1F` (stereo not drawn) [Compound 43, 2-(1-(4-amino-3-(3-fluoro-4-methylphenyl)-1H-pyrazolo [3,4-d]pyrimidin-1-yl)ethyl)-3-cyclopropyl-6-fluoroquinazolin-4-(3H)-one], 0.0273 µM corresponded to half-maximal inhibition (IC50).

Molecule `CC(c1nc2cccc(F)c2c(=O)n1C1CCCC1)n1nc(-c2ccc3c(c2)OCO3)c2c(N)ncnc21` (stereo not drawn) [Compound 46, 2-(1-(4-amino-3-(benzo[d][1,3]dioxol-5-yl)-1H-pyrazolo [3,4-d]pyrimidin-1-yl)ethyl)-3-cyclopentyl-5-fluoroquinazolin-4(3H)-one] gave an IC50 of 0.0347 µM.

`COc1ccc(-c2nn(Cc3nc4cccc(F)c4c(=O)n3C3CCC3)c3ncnc(N)c23)cc1F` [Compound 7, 2-((4-amino-3-(3-fluoro-4-methoxyphenyl)-1H-pyrazolo [3,4-d]pyrimidin-1-yl)methyl)-3-cyclobutyl-5-fluoroquinazolin-4(3H)-one]: inhibition was half-maximal at 0.0999 µM (IC50).

`COc1ccc(-c2nn(C(C)c3nc4ccccc4c(=O)n3C3CC3)c3ncnc(N)c23)cc1C` (stereo not drawn) [Compound 44, 2-(1-(4-amino-3-(4-methoxy-3-methylphenyl)-1H-pyrazolo [3,4-d]pyrimidin-1-yl)ethyl)-3-cyclopropylquinazolin-4(3H)-one] came in with an IC50 of 0.0398 µM.

For `COc1ccc(-c2nn(C(C)c3nc4cccc(F)c4c(=O)n3C3CCC3)c3ncnc(N)c23)cc1C` (stereo not drawn) [Compound 34, 2-(1-(4-amino-3-(4-methoxy-3-methylphenyl)-1H-pyrazolo [3,4-d]pyrimidin-1-yl)ethyl)-3-cyclobutyl-5-fluoroquinazolin-4(3H)-one], the IC50 was determined as 0.0418 µM.

Regarding `CC(c1nc2cccc(F)c2c(=O)n1C1CCC1)n1nc(-c2ccc3c(c2)OCO3)c2c(N)ncnc21` (stereo not drawn) [Compound 35, 2-(1-(4-amino-3-(benzo[d][1,3]dioxol-5-yl)-1H-pyrazolo [3,4-d]pyrimidin-1-yl)ethyl)-3-cyclobutyl-5-fluoroquinazolin-4(3H)-one], the IC50 was determined as 0.0262 µM.

`COc1ccc(-c2nn(C(C)c3nc4cccc(F)c4c(=O)n3C3CCC3)c3ncnc(N)c23)cn1` (stereo not drawn) [Compound 54, 2-(1-(4-amino-3-(6-methoxypyridin-3-yl)-1H-pyrazolo [3,4-d]pyrimidin-1-yl)ethyl)-3-cyclobutyl-5-fluoroquinazolin-4(3H)-one]: the IC50 was found to be 0.039 µM.

For the molecule `CC(=O)Nc1ccc(-c2nn(C(C)c3nc4cccc(F)c4c(=O)n3C3CCC3)c3ncnc(N)c23)cc1` (stereo not drawn) [Compound 53, N-(4-(4-amino-1-(1-(3-cyclobutyl-5-fluoro-4-oxo-3,4-dihydroquinazolin-2-yl)ethyl)-1H-pyrazolo[3,4-d]pyrimidin-3-yl)phenyl)acetamide], the IC50 amounted to 0.0438 µM.

In turn, `CCC(c1nc2cc(F)c(F)cc2c(=O)n1C1CC1)n1nc(-c2ccc(OC)c(F)c2)c2c(N)ncnc21` (stereo not drawn) [Compound 56, 2-(1-(4-amino-3-(3-fluoro-4-methoxyphenyl)-1H-pyrazolo [3,4-d]pyrimidin-1-yl)propyl)-3-cyclopropyl-6,7-difluoroquinazolin-4(3H)-one] had an IC50 of 0.0567 µM.

`COc1ccc(-c2nn(C(C)c3nc4cccc(F)c4c(=O)n3C3CCCC3)c3ncnc(N)c23)cc1C` (stereo not drawn) [Compound 36, 2-(1-(4-amino-3-(4-methoxy-3-methylphenyl)-1H-pyrazolo [3,4-d]pyrimidin-1-yl)ethyl)-3-cyclopentyl-5-fluoroquinazolin-4(3H)-one] had an IC50 of 0.0162 µM.

With `CC(C)c1ccc(-c2nn(C(C)c3nc4cccc(F)c4c(=O)n3C3CCC3)c3ncnc(N)c23)cc1` (stereo not drawn) [Compound 28, 2-(1-(4-amino-3-(4-isopropylphenyl)-1H-pyrazolo [3,4-d]pyrimidin-1-yl)ethyl)-3-cyclobutyl-5-fluoroquinazolin-4(3H)-one], inhibition was half-maximal at 0.0833 µM (IC50).

The molecule `CCC(c1nc2cccc(F)c2c(=O)n1C1CC1)n1nc(-c2ccc(OC)nc2)c2c(N)ncnc21` (stereo not drawn) [Compound 50, 2-(1-(4-amino-3-(6-methoxypyridin-3-yl)-1H-pyrazolo [3,4-d]pyrimidin-1-yl)propyl)-3-cyclopropyl-5-fluoroquinazolin-4(3H)-one] yielded an IC50 of 0.0485 µM.

Molecule `CC(c1nc2cccc(F)c2c(=O)n1C1CCCC1)n1nc(-c2cnc3ccccc3c2)c2c(N)ncnc21` (stereo not drawn) [Compound 26, 2-(1-(4-amino-3-(quinolin-3-yl)-1H-pyrazolo [3,4-d]pyrimidin-1-yl)ethyl)-3-cyclopentyl-5-fluoroquinazolin-4(3H)-one] showed an IC50 of 0.0557 µM.

The molecule `CC(C)c1ccc(-c2nn(C(C)c3nc4cccc(F)c4c(=O)n3C3CCCC3)c3ncnc(N)c23)cc1` (stereo not drawn) [Compound 24, 2-(1-(4-amino-3-(4-isopropylphenyl)-1H-pyrazolo [3,4-d]pyrimidin-1-yl)ethyl)-3-cyclopentyl-5-fluoroquinazolin-4(3H)-one] yielded an IC50 of 0.0215 µM.

On to `CC[C@H](c1nc2cccc(F)c2c(=O)n1C1CC1)n1nc(-c2ccc(OC)c(F)c2)c2c(N)ncnc21` [Compound 82, 2-((R)-1-(4-amino-3-(3-fluoro-4-methoxyphenyl)-1H-pyrazolo [3,4-d]pyrimidin-1-yl)propyl)-3-cyclopropyl-5-fluoroquinazolin-4(3H)-one], for which the midpoint of inhibition, the IC50, lay at 0.0367 µM.

`COc1ccc(-c2nn(C(C)c3nc4ccccc4c(=O)n3C3CCC3)c3ncnc(N)c23)cc1C` (stereo not drawn) [Compound 39, 2-(1-(4-amino-3-(4-methoxy-3-methylphenyl)-1H-pyrazolo [3,4-d]pyrimidin-1-yl)ethyl)-3-cyclobutylquinazolin-4(3H)-one] came in with an IC50 of 0.0235 µM.

`COc1ccc(-c2nn(C(C)c3nc4c(Cl)cccc4c(=O)n3C3CCC3)c3ncnc(N)c23)cc1F` (stereo not drawn) [Compound 29, 2-(1-(4-amino-3-(3-fluoro-4-methoxyphenyl)-1H-pyrazolo [3,4-d]pyrimidin-1-yl)ethyl)-8-chloro-3-cyclobutylquinazolin-4(3H)-one] came in with an IC50 of 0.0773 µM.

In turn, `CCC(c1nc2cccc(F)c2c(=O)n1C1CC1)n1nc(-c2ccc(OC)c(OC)c2)c2c(N)ncnc21` (stereo not drawn) [Compound 47, 2-(1-(4-amino-3-(3,4-dimethoxyphenyl)-1H-pyrazolo [3,4-d]pyrimidin-1-yl)propyl)-3-cyclopropyl-5-fluoroquinazolin-4(3H)-one] returned an IC50 of 0.0321 µM.

In the case of `COc1ccc(-c2nn(C(C)c3nc4ccccc4c(=O)n3C3CC3)c3ncnc(N)c23)cc1` (stereo not drawn) [Compound 45, 2-(1-(4-amino-3-(4-methoxyphenyl)-1H-pyrazolo [3,4-d]pyrimidin-1-yl)ethyl)-3-cyclopropylquinazolin-4(3H)-one], 0.0272 µM corresponded to half-maximal inhibition (IC50).

For the molecule `Cc1ccc(-c2nn(C(C)c3nc4cccc(F)c4c(=O)n3C3CCCC3)c3ncnc(N)c23)cc1F` (stereo not drawn) [Compound 25, 2-(1-(4-amino-3-(3-fluoro-4-methylphenyl)-1H-pyrazolo [3,4-d]pyrimidin-1-yl)ethyl)-3-cyclopentyl-5-fluoroquinazolin-4(3H)-one], the IC50 amounted to 0.0175 µM.

In turn, `CCC(c1nc2cccc(F)c2c(=O)n1C1CC1)n1nc(-c2ccc(OC)cc2)c2c(N)ncnc21` (stereo not drawn) [Compound 40, 2-(1-(4-amino-3-(4-methoxyphenyl)-1H-pyrazolo [3,4-d]pyrimidin-1-yl)propyl)-3-cyclopropyl-5-fluoroquinazolin-4(3H)-one] displayed an IC50 of 0.0289 µM.

Another assay has as its target T3, PI3Kβ (Homo sapiens, UniProt P42338).
T3 construct: purchased sigma (US)
As to the kind of experiment: In vitro enzyme activity (ADP-Glo) against PI3Kβ. Type of assay: biochemical. Conditions: Table 3; ATP 10 μM, PIP2:PS 50 μM; read-out: IC50 PIK3β. As for the experimental part:
as §1, §2, §3, §4
Turning to `CC(C)Oc1ccc(-c2nn([C@@H](C)c3oc4ccc(F)cc4c(=O)c3-c3cccc(F)c3)c3ncnc(N)c23)cc1F` [TGR1202, reference compound], the IC50 is above 10 µM.
